The assay deals with T1, Neutrophil elastase (Homo sapiens, UniProt P08246).
T1 sequence (P08246 whole entry): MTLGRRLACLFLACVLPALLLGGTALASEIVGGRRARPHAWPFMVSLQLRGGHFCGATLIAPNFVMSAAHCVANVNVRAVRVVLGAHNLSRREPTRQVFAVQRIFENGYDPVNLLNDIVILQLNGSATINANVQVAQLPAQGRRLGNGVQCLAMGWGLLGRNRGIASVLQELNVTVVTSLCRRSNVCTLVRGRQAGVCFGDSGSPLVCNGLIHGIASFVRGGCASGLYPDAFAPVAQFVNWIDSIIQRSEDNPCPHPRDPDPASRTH
Briefly: Inhibitory constant for human neutrophil elastase.

What is called Ki is the dissociation constant of the complex between target and ligand, obtained from inhibition or displacement. Read a low Ki as a stronger hold on the target. For the compound `CC[C@@H](C)[C@H](NCc1ccccc1)C(=O)N[C@@H](CCCCNC(=O)C12CC3CC(CC(C3)C1)C2)C(=O)N[C@@H](CS)C(=O)N[C@H](C(=O)O)C(C)C`, affinity was put at a Ki of 270 µM.

The values above are taken from ChEMBL document CHEMBL1132529 (Bioorg Med Chem Lett, 1999).
